Data reported in patent US20110021530A1, “PYRIDAZINE DERIVATIVES AND THEIR USE AS THERAPEUTIC AGENTS IN THE TREATMENT OF SKIN DISORDERS” (XENON PHARMACEUTICALS INC., priority 2008, published 2011).
Marks after values point to notes of the source that are not given here.

Tests used:
sebaceous glands = assay: Effect of topically administered LCF369 on the sebaceous glands of NMRI mice (histomorphometry); type: in vivo, female Crl:NMRI mice; conditions: for atrophogenic effect (recovery): 1% LCF369 7-day treatment
Procedure: LCF369 is prepared either in a solution of ethanol/propylene glycol (3/7, v/v) or in topical formulations at 1.0, 0.5 or 0.1% for testing in female Crl:NMRI mice. In general, shaved application sites of approximately 2.5 cm^2 on the back of mice are treated twice daily (once on weekends or at study termination) with 50 μl of the LCF369 preparations. To prevent the animals from potential oral uptake of the epicutaneously applied compounds, they are fitted with ruffs and housed individually. After the last application, the animals are euthanised; the treated sites dissected and prepared for histological sections. Hematoxilin/eosin (HE)-stained 3 μm-thick sections are prepared from formalin-fixed, paraffin-embedded tissue. From each animal, one HE-stained section per site is histomorphometrically examined. The entire sections of approximately 10 mm length are evaluated microscopically (200×) for sebaceous glands. The mean size and mean number (per mm^2 dermis) of sectioned alveolar units of the sebaceous glands are determined in a coded fashion with an image analyzer (Axiovision, Zeiss). For statistical analysis, morphometric data are analyzed with a T-test or Mann-Whitney rank sum test. Frozen tissue sections (5 μm) are used for oil red O (lipid) staining.
Groups of 5 mice are treated with 50 μl of 1% or 0.1% LCF369 twice daily (except on weekends, when the animals are treated once daily and on study termination) for 8 days (i.e. 14 applications in total). Four control animals are treated similarly with the vehicle alone. In life, the animals are observed for clinical signs and macroscopic changes of the application sites. One day after the last application, an evaluation is performed. In animals treated with 1.0% LCF369, untreated skin samples distant from the treated sites are also collected in order to assess systemic activity due to percutaneous absorption of LCF369.
Groups of 4 mice are treated with 1.0% LCF369 twice daily for 2, 4, 6 and 8 days (i.e. up to 16 applications). Control groups remain untreated or are treated with the vehicle alone twice daily for 8 days.
LCF369 is tested at 1.0%, 0.5% and 0.1%, groups of 6 mice are treated twice daily for 7 consecutive days. Evaluation is performed on the day following the 14th application.
A 7-day b.i.d. (twice daily) treatment schedule (except on week ends when the animals were treated once daily) with 1.0% LCF369 is applied to groups of 7 mice which are evaluated on days 8 (one day after the 14th application), 24 and 41. For comparison, skin sections from animals treated with vehicle are examined on day 8 and skin samples from untreated animals of the same delivery were examined in parallel on days 8 and 41.
Three different formulations containing 0.5% LCF369 are tested: i) emulsion gel with the penetration enhancer SEPA-9™ (batch 92.66.01-ra), ii) emulsion gel without a penetration enhancer (batch 9450-05-Ra), and iii) a formulation containing particulate compound (“follicular targeting formulation”). They are evaluated after 9 or 13 applications.

[1] = Solubility in co-solvents; type: physicochemical; conditions: compared with other co-solvents
[2] = 0.1% LCF369 topical, 8 days (14 applications), treated sites (locally), day 9, mean (SD), 5 animals
[3] = 0.5% LCF369 emulsion gel containing SEPA-9, 9 applications, mean (SD), 3 animals
[4] = 0.5% LCF369 emulsion gel containing SEPA-9, 13 applications, mean (SD), 3 animals
[5] = 0.5% LCF369 twice daily 7 days, vs vehicle-treated controls
[6] = 1.0% LCF369 topical, 8 days (14 applications), treated sites (locally), day 9, mean (SD), 5 animals
[7] = 1.0% LCF369 topical, 8 days, sites distant from the treated sites (distantly), day 9, mean (SD), 5 animals
[8] = 1% LCF369 twice daily 7 days, vs vehicle-treated controls
[9] = 1.0% LCF369 twice daily for 8 days as printed, vs vehicle, time point of this value not stated
[10] = 1.0% LCF369 twice daily, 2 days of treatment, one day after last application, 4 animals
[11] = 1.0% LCF369 twice daily, 4 days of treatment
[12] = 1.0% LCF369 twice daily, 6 days of treatment
[13] = 1.0% LCF369 twice daily, 8 days of treatment
[14] = 1.0% LCF369 twice daily, after 4 days, vs vehicle
[15] = 1.0% LCF369 twice daily, after 6 days, vs vehicle
[16] = 1.0% LCF369 twice daily, after 8 days, vs vehicle
[17] = LCF 1%, 7-day b.i.d. treatment, evaluation day 8 (one day after last application), 7 animals
[18] = LCF 1%, 7-day treatment, evaluation day 24 (17 days after last application)
[19] = LCF 1%, 7-day treatment, evaluation day 41 (34 days after last application)
[20] = LCF369 0.1% (w/v) twice daily for 7 days
[21] = LCF369 0.5% (w/v) twice daily for 7 days
[22] = LCF369 1.0% (w/v) twice daily for 7 days, one day after last application, 6 animals
[23] = LCF369-treated vs vehicle-treated skin
[24] = one day after the 7 days-treatment period with 1% LCF369

Compound: O=C(NCCC1CC1)c1ccc(N2CCN(C(=O)c3cc(F)ccc3C(F)(F)F)CC2)nn1 [LCF369, 6-[4-(5-Fluoro-2-trifluoromethylbenzoyl)piperazin-1-yl]pyridazine-3-carboxylic acid (2-cyclopropylethyl)amide]
- atrophogenic effect (sebaceous glands; 0.1% LCF369, 8 days): little or no atrophogenic effects
- Number of sebaceous glandular units (sebaceous glands; [2]): 34.3 (4.1) per mm^2 dermis
- Size of sebaceous glandular units (sebaceous glands; [2]): 1090 (200) μm^2
- Number of sebaceous glandular units (sebaceous glands; [3]): 10.6 (5.89)*
- Size (μm^2) of sebaceous glandular units (sebaceous glands; [3]): 745.8 (339.3)*** μm^2
- Number of sebaceous glandular units (sebaceous glands; [4]): 10.1 (3.48)*
- Size (μm^2) of sebaceous glandular units (sebaceous glands; [4]): 946.1 (134.0)*** μm^2
- hyper/parakeratosis and acanthosis in skin sections (sebaceous glands; 0.5% LCF369 formulation containing SEPA-9 vs placebo-treated (vehicle-treated) samples): hyper/parakeratosis and acanthosis is more pronounced
- effect on sebaceous glands (sebaceous glands; 0.5% LCF369 formulation containing penetration enhancer SEPA-9, 9 and 13 applications): significant atrophy of sebaceous glands
- reduction of mean size of sebaceous glands (sebaceous glands; [5]): 48%
- reduction of numbers of sebaceous glands per mm^2 dermis (sebaceous glands; [5]): 38%
- atrophogenic effect (recovery) (sebaceous glands; day 24): substantially reduced
- atrophogenic effect (recovery) (sebaceous glands; day 41): almost completely absent
- differences in numbers and sizes of sebaceous glands at sites distant from the LCF369 treatments (sebaceous glands; 1.0% LCF369, 8 days, distant sites): no significant differences
- reduction of sebaceous glands in numbers, factor (sebaceous glands; 1.0% LCF369, 8 days, vs vehicle, p<0.001): about 2.5
- reduction of sebaceous glands in sizes (sebaceous glands; 1.0% LCF369, 8 days, vs vehicle, p<0.01): about 1.9 fold
- Number of sebaceous glandular units (sebaceous glands; [6]): 13.7 (8.2) *** per mm^2 dermis
- Size of sebaceous glandular units (sebaceous glands; [6]): 571 (200) ** μm^2
- Number of sebaceous glandular units (sebaceous glands; [7]): 28.4 (6.0) per mm^2 dermis
- Size of sebaceous glandular units (sebaceous glands; [7]): 1090 (250) μm^2
- reduction of numbers of sebaceous glands (sebaceous glands; [8]): 57%
- reduction of size of sebaceous glands (sebaceous glands; [8]): 60%
- treatment period after which the effect is statistically significant (sebaceous glands; 1.0% LCF369 twice daily (8 applications)): 4 days
- progressive decrease in the numbers of sebaceous glands (sebaceous glands; [9]): 12%
- progressive decrease in the size of sebaceous glands (sebaceous glands; [9]): 19%
- Number of sebaceous glandular units (sebaceous glands; [10]): 24.8 per mm^2 dermis
- Size (μm^2) of sebaceous glandular units (sebaceous glands; [10]): 1095 μm^2
- Number of sebaceous glandular units (sebaceous glands; [11]): 18.0 per mm^2 dermis
- Size (μm^2) of sebaceous glandular units (sebaceous glands; [11]): 875 μm^2
- Number of sebaceous glandular units (sebaceous glands; [12]): 12.6 per mm^2 dermis
- Size (μm^2) of sebaceous glandular units (sebaceous glands; [12]): 613 μm^2
- Number of sebaceous glandular units (sebaceous glands; [13]): 7.0 per mm^2 dermis
- Size (μm^2) of sebaceous glandular units (sebaceous glands; [13]): 374 μm^2
- decrease of mean size of sebaceous glands (sebaceous glands; [14]): 35%
- reduction of numbers of sebaceous glands (sebaceous glands; [14]): 35%
- decrease of mean size of sebaceous glands (sebaceous glands; [15]): 35%
- reduction of numbers of sebaceous glands (sebaceous glands; [15]): 54%
- decrease of mean size of sebaceous glands (sebaceous glands; [16]): 72%
- reduction of numbers of sebaceous glands (sebaceous glands; [16]): 75%
- Number of sebaceous glandular units (sebaceous glands; [17]): 9.28
- Size (μm^2) of sebaceous glandular units (sebaceous glands; [17]): 708 μm^2
- Number of sebaceous glandular units (sebaceous glands; [18]): 17.4
- Size (μm^2) of sebaceous glandular units (sebaceous glands; [18]): 1154 μm^2
- Number of sebaceous glandular units (sebaceous glands; [19]): 21
- Size (μm^2) of sebaceous glandular units (sebaceous glands; [19]): 1456 μm^2
- Number of sebaceous glandular units (sebaceous glands; [20]): 23.8 per mm^2 dermis
- Size (μm^2) of sebaceous glandular units (sebaceous glands; [20]): 1396 μm^2
- Number of sebaceous glandular units (sebaceous glands; [21]): 14.5 per mm^2 dermis
- Size (μm^2) of sebaceous glandular units (sebaceous glands; [21]): 870 μm^2
- Number of sebaceous glandular units (sebaceous glands; [22]): 10.1 per mm^2 dermis
- Size (μm^2) of sebaceous glandular units (sebaceous glands; [22]): 675 μm^2
- histochemical (HE) staining of skin, sebaceous glands (FIG. 2B) (sebaceous glands; [23]): fewer and smaller (atrophic) sebaceous glands
- oil red O staining, lipids associated with hair shafts (FIG. 3B) (sebaceous glands; [23]): significantly reduced lipids associated with hair shafts
- minimal statistically significant effective concentration (sebaceous glands; applied twice daily (50 μL each time) for 7 days): 0.5%
- reduction of mean size of sebaceous glands (sebaceous glands; [24]): 50%
- reduction of numbers of sebaceous glands (sebaceous glands; [24]): 57%
- concentration at which efficacy is seen (sebaceous glands; topical application): ≥ 0.4%
- treatment time at which efficacy is seen (sebaceous glands; topical application): ≥ 4 days
- solubility in benzyl alcohol [1]: surprisingly good solubility
